The test system of experiment [1] is methicillin-resistant Staphylococcus aureus ATCC43300. Put plainly: microbe, parasite or virus in culture. The class given is cell-based. The following applies: 24 h; for MIC, MRSA ATCC 43300: broth dilution, 37° C. From the text: (§1) A broth dilution method was used in the experiment. Tiamulin was selected as a control drug in the experiment. The tiamulin is a pleuromutilin antibiotic as well as one of the top ten veterinary antibiotics in the world.
(§2) The strains used in the experiment were methicillin-resistant Staphylococcus aureus ATCC43300, Staphylococcus aureus ATCC29213, clinical Staphylococcus aureus AD3, clinical S. aureus 144, Mycoplasma gallisepticum 352, 352 tiamulin induced drug-resistant bacteria and clinical isolates M47.
(§3) Preparation of target compound stock solution: 6.4 mg of target compound was accurately weighed, placed in a 5 mL volumetric flask, and dissolved with 0.25 mL of DMSO and 0.25 mL of Tween 80; then 4.5 mL of distilled water was added for fixing the volume; the solution was fully shaken to obtain a stock solution (1280 μg/mL); and the stock solution was filtered with a 0.22 μm filter membrane and sterilized, subpackaged into small tubes, and stored at −20° C. The control drug tiamulin was also prepared according to the above method.
(§4) Preparation of bacterial solution: the strains that were well preserved at −20° C. were taken out and inoculated on a new MH plate, and after culture at 37° C. for 24 h, a single colony was selected and inoculated in MH medium for culturing again for 24 h. The selected single colony was transferred to sterile normal saline and the turbidity was adjusted to 0.6 McF. At this moment, the concentration of the bacterial solution was 10^6 CFU/mL.
(§5) Preparation of MIC plate: a sterile 96-well plate was taken; 180 μL of MH broth medium was added to the first well, 100 μL of MH broth medium was added to the second well to the 12th well; 20 μL of target compound solution with a concentration of 1280 μg/mL was added to the first well; after even mixing, 100 μL of solution was added to the second well, and mixed well; 100 μL of solution was absorbed to the third well, and so on; and 100 μL of solution was absorbed to the 12th well and discarded. At this moment, the drug concentrations in the wells were: 128, 64, 32, 16, 8, 4, 2, 1, 0.5, 0.25, 0.125, and 0.06 μg/mL, and three parallel groups were made for the drugs of the concentrations.
(§6) Inoculation of bacterial solution: 100 μL of bacterial solution was added into the first well to the 12th well, so that the final bacterial solution concentration in each well was about 5×10^5 CFU/mL, and the drug concentrations in the first well to the 12th well were 64, 32, 16, 8, 4, 2, 1, 0.5, 0.25, 0.125, 0.06 and 0.03 μg/mL respectively. […] When a single jumping hole occurred in the microbroth dilution method, the maximum drug concentration for inhibiting bacteria was recorded, and the experiment shall be repeated if multiple jumping holes occurred.

The test system of experiment [2] is Staphylococcus aureus ATCC29213. Put plainly: In vitro antibacterial experiment, broth dilution MIC. The class given is cell-based. Conditions: 24 h; for MIC, S. aureus ATCC 29213: 37° C.
From the text: as §1, §2, §3, §4, §5, §6
(Broth dilution looks for growth in wells or tubes with falling amounts of substance.)

Experiment [3] relates to clinical Staphylococcus aureus AD3. Described as above. The class given is cell-based. Conditions: 37° C., 24 h, clinical isolate.
From the text: as §1, §2, §3, §4, §5, §6

Experiment [4] deals with clinical S. aureus 144. The description is as above. The class given is cell-based, Staphylococcus aureus. The following applies: 37° C., 24 h, clinical isolate.
From the text: as §1, §2, §3, §4, §5, §6

Experiment [5] concerns Mycoplasma gallisepticum 352. Briefly: In vitro inhibition experiment of mycoplasma activity, broth dilution MIC. It counts as cell-based. The following applies: for MIC, Mycoplasma gallisepticum 352: 37° C. The protocol:
(§7) The broth dilution method was adopted in the experiment. The tiamulin was selected as the control drug in the experiment.
(§8) The strains used in the experiment were Mycoplasma gallisepticum 352, 352-tiamulin resistant strain, and M47.
(§9) Preparation of the target compound stock solution: the compound was dissolved with 1 mL of DMSO, then fixed in volume with a 250 mL volumetric flask and fully shaken to obtain the stock solution (5120 μg/mL).
(§10) The stock solution was diluted in petri dishes with a doubling dilution method. Each petri dish contained 2 ml of medical solution, and the medical solution was diluted to 20 ml, so that the final concentrations of the compound were […] respectively.
(§11) 15 sterile 2 mL EP tubes were placed in each row. 0.9 mL of liquid medium was added to the first tube, and 0.5 mL of liquid medium was added to the other tubes respectively. 0.1 mL of prepared medical solution was added to the first tube and fully mixed. Then, 0.5 mL of medical solution was added to the second tube, and so on. Finally, 0.5 mL of medical solution was absorbed and discarded.

In experiment [6] the test system is Mycoplasma gallisepticum M47. The experiment is described as above. It counts as cell-based. The following applies: clinical isolate; for MIC, Mycoplasma gallisepticum M47: 37° C. On the procedure:
as §7, §8, §9, §10, §11

In experiment [7] the test system is Mycoplasma gallisepticum 352-tiamulin resistant strain. Put plainly: microbe, parasite or virus in culture. It counts as cell-based. Conditions: for MIC, Mycoplasma gallisepticum 352-tiamulin resistant strain: broth dilution, 37° C. The protocol: as §7, §8, §9, §10, §11

≈ marks a conversion by molar mass, not a printed value. Bounds are passed on as bounds.

On to `C=CC1(C)CC(OC(=O)CSc2ncc(NC(=O)C3CCCCC3)s2)C2(C)C(C)CCC3(CCC(=O)C32)C(C)C1O` (stereo not drawn) [Compound 4], for which the “MIC, MRSA ATCC 43300” value in experiment [1] was determined as 0.125 µg/mL (≈ 0.207 µM). Moreover, in experiment [2], the “MIC, S. aureus ATCC 29213” value is 0.03125 µg/mL (≈ 0.0518 µM). Moreover, the “MIC, S. aureus AD3” value in experiment [3] stood at 0.0625 µg/mL (≈ 0.104 µM). Also, the “MIC, S. aureus 144” value in experiment [4] amounted to 0.0625 µg/mL (≈ 0.104 µM). Also, the “MIC, Mycoplasma gallisepticum 352” value in experiment [5] was 0.015 µg/mL (≈ 0.0249 µM). Also, the “MIC, Mycoplasma gallisepticum M47” value in experiment [6] came out at 1 µg/mL (≈ 1.66 µM). For the same compound, the “MIC, Mycoplasma gallisepticum 352-tiamulin resistant strain” value in experiment [7] worked out at 0.25 µg/mL (≈ 0.415 µM).
On to `C=CC1(C)CC(OC(=O)CSc2ncc(NC(=O)C3CCC3)s2)C2(C)C(C)CCC3(CCC(=O)C32)C(C)C1O` (stereo not drawn) [Compound 2], for which the “MIC, MRSA ATCC 43300” value in experiment [1] amounted to 0.0625 µg/mL (≈ 0.109 µM). For the same compound, the “MIC, S. aureus ATCC 29213” value in experiment [2] was 0.125 µg/mL (≈ 0.217 µM). Further, the “MIC, S. aureus AD3” value in experiment [3] came out at 0.125 µg/mL (≈ 0.217 µM). Also, the “MIC, S. aureus 144” value in experiment [4] stood at 0.25 µg/mL (≈ 0.435 µM). Moreover, in experiment [5], the “MIC, Mycoplasma gallisepticum 352” value was 0.008 µg/mL (≈ 0.0139 µM). For the same compound, the “MIC, Mycoplasma gallisepticum M47” value in experiment [6] stood at 0.5 µg/mL (≈ 0.87 µM). Further, the “MIC, Mycoplasma gallisepticum 352-tiamulin resistant strain” value in experiment [7] was determined as 0.25 µg/mL (≈ 0.435 µM).
With `C=C[C@]1(C)C[C@@H](OC(=O)CSCCN(CC)CC)[C@]2(C)[C@H](C)CC[C@]3(CCC(=O)[C@H]32)[C@@H](C)[C@@H]1O` [Tiamulin, reference compound], the MIC in experiment [1] (Staphylococcus aureus, ATCC 43300 / MRSA, read-out: MIC, MRSA ATCC 43300) is 0.5 µg/mL (≈ 1.01 µM); in experiment [2] (Staphylococcus aureus, ATCC29213, 37° C., read-out: MIC, S. aureus ATCC 29213), 1 µg/mL (≈ 2.03 µM); in experiment [3] (Staphylococcus aureus, read-out: MIC, S. aureus AD3) it was 1 µg/mL (≈ 2.03 µM); in experiment [4] (Staphylococcus aureus) it was 1 µg/mL (≈ 2.03 µM); in experiment [5] (Mycoplasmoides gallisepticum, 352, 37° C.), at most 0.004 µg/mL; in experiment [6] (Mycoplasmoides gallisepticum, M47, 37° C.), 0.125 µg/mL (≈ 0.253 µM). The MIC in experiment [7] (Mycoplasmoides gallisepticum, read-out: MIC, Mycoplasma gallisepticum 352-tiamulin resistant strain) amounted to 0.25 µg/mL (≈ 0.506 µM).
On to `C=CC1(C)CC(OC(=O)CSc2ncc(NC(=O)C(Cl)(Cl)Cl)s2)C2(C)C(C)CCC3(CCC(=O)C32)C(C)C1O` (stereo not drawn) [Compound 23], for which the “MIC, MRSA ATCC 43300” value in experiment [1] turned out to be 1 µg/mL (≈ 1.57 µM). The “MIC, S. aureus ATCC 29213” value in experiment [2] turned out to be 2 µg/mL (≈ 3.13 µM). Besides, the “MIC, S. aureus AD3” value in experiment [3] was 1 µg/mL (≈ 1.57 µM). The “MIC, S. aureus 144” value in experiment [4] stood at 2 µg/mL (≈ 3.13 µM). Moreover, the “MIC, Mycoplasma gallisepticum 352” value in experiment [5] worked out at 0.125 µg/mL (≈ 0.196 µM). Also, in experiment [6], the “MIC, Mycoplasma gallisepticum M47” value came out at 4 µg/mL (≈ 6.27 µM). Moreover, the “MIC, Mycoplasma gallisepticum 352-tiamulin resistant strain” value in experiment [7] turned out to be 1 µg/mL (≈ 1.57 µM).
Turning to `C=CC1(C)CC(OC(=O)CSc2ncc(NC(=O)COC(C)=O)s2)C2(C)C(C)CCC3(CCC(=O)C32)C(C)C1O` (stereo not drawn) [Compound 10], the “MIC, MRSA ATCC 43300” value in experiment [1] is 0.0625 µg/mL (≈ 0.105 µM). In addition, the “MIC, S. aureus ATCC 29213” value in experiment [2] turned out to be 0.125 µg/mL (≈ 0.211 µM). For the same compound, the “MIC, S. aureus AD3” value in experiment [3] came to 0.125 µg/mL (≈ 0.211 µM). Further, in experiment [4], the “MIC, S. aureus 144” value turned out to be 0.0625 µg/mL (≈ 0.105 µM). Further, in experiment [5], the “MIC, Mycoplasma gallisepticum 352” value is at most 0.004 µg/mL. In experiment [6], the “MIC, Mycoplasma gallisepticum M47” value amounted to 0.03 µg/mL (≈ 0.0506 µM). Besides, the “MIC, Mycoplasma gallisepticum 352-tiamulin resistant strain” value in experiment [7] amounted to 0.03 µg/mL (≈ 0.0506 µM).
As for `C=CC1(C)CC(OC(=O)CSc2ncc(NC(=O)C(C)(C)CC)s2)C2(C)C(C)CCC3(CCC(=O)C32)C(C)C1O` (stereo not drawn) [Compound 18], in experiment [1], the “MIC, MRSA ATCC 43300” value is 0.25 µg/mL (≈ 0.423 µM). Also, the “MIC, S. aureus ATCC 29213” value in experiment [2] turned out to be 0.25 µg/mL (≈ 0.423 µM). In addition, in experiment [3], the “MIC, S. aureus AD3” value stood at 0.25 µg/mL (≈ 0.423 µM). For the same compound, in experiment [4], the “MIC, S. aureus 144” value amounted to 0.5 µg/mL (≈ 0.846 µM). Also, the “MIC, Mycoplasma gallisepticum 352” value in experiment [5] was 0.03 µg/mL (≈ 0.0508 µM). In addition, the “MIC, Mycoplasma gallisepticum M47” value in experiment [6] amounted to 1 µg/mL (≈ 1.69 µM). For the same compound, the “MIC, Mycoplasma gallisepticum 352-tiamulin resistant strain” value in experiment [7] was found to be 0.5 µg/mL (≈ 0.846 µM).

The record behind these values is patent US20250100982A1, “PLEUROMUTILIN DERIVATIVE WITH THIAZOLE SIDE CHAIN AND PREPARATION AND APPLICATION” (SOUTH CHINA AGRICULTURAL UNIVERSITY, priority 2023, published 2025).
